Results published in patent US5324725A, “7-fused 2-(piperazinoalkyl) indole derivatives, intermediates and compositions thereof” (Kali-Chemie Pharma GmbH, priority 1991, dated 1994).

Assays:
[1] = tested on: P.A.F.-induced aggregation of platelets from rabbit blood; test: Anti-P.A.F. effect in vitro: inhibition of P.A.F.-induced platelet aggregation; type: cell-based, rabbit (New Zealand hybrids); conditions: Oryctolagus cuniculus, Platelet, test substance concentration 10^-5 mol/l
Method in brief: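 Washed, aspirin-treated rabbit platelets (4×10^9/ml stock suspension) in modified Tyrode buffer, pH 7.4, preincubated 90 s with test compound at 10^-5 mol/l final, then challenged with P.A.F. Aggregation followed 4–5 min in an aggregometer. Inhibition expressed in % relative to P.A.F.-only (100%) and platelet-only (0%) controls.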

[2] = tested on: Histamine-induced anaphylactoid reactions; test: Inhibition of anaphylactoid cutaneous reaction induced by histamine; type: in vivo, rat (Sprague-Dawley); conditions: Rattus norvegicus, 1 h; rats, 2 × 10^-5 mol/kg p.o., one hour before challenge; histamine intradermal
Method in brief: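 Animals received 50 μl intradermal histamine (0.8 mg/ml in saline) in the flank opposite the antiserum site, just before i.v. ovalbumin plus blue dye. Test substance at 2×10^-5 mol/kg was given orally 1 h before challenge in water with 1% DMF and 1% Tween 20. Blue-dye exudation was scored visually at 30 min, giving % inhibition versus solvent controls.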

| Compound | inhibition at 10 µM [1] | inhibition in vivo at 20 µmol/kg [2] |
| --- | --- | --- |
| Cc1cc2c3c(c1)c(CCN1CCC(C(=O)c4ccc(F)cc4)CC1)c(C)n3CCC2 [Example 55] | 40% | 50% |
| Cc1ccnc(N2CCN(CCc3c(C)n4c5c(cc(C(O)C(C)C)cc35)CCC4)CC2)c1 (stereo not shown) [Example 19, 5,6-Dihydro-8-(1-hydroxy-2-methylpropyl)-2-methyl-1-{2-[4-(4-methylpyridin-2-yl)piperazin-1-yl]ethyl}-4H-pyrrolo-[3,2,1-ij]quinoline] | 83% | 95% |
| Cc1ccnc(N2CCN(CCc3c(C)n4c5c(cccc35)CCC4c3ccc(O)cc3)CC2)c1 (stereo not shown) [Example 61] | 83% | 100% |
| CCc1c(CCN2CCN(c3cc(C)ccn3)CC2)c2cccc3c2n1CCC3 [Example 15, 2-Ethyl-5,6-dihydro-1-{2-[4-(4-methylpyridin-2-yl)piperazin-1-yl]ethyl}-4H-pyrrolo[3,2,1-ij]quinoline] | 85% | 65% |
| Cc1ccnc(N2CCN(CCc3c(C)n4c5c(cc(CC(C)C)cc35)CCC4)CC2)c1 [Example 21, 5,6-Dihydro-2-methyl-8-(2-methylpropyl)-1-{2-[4-(4-methylpyridin-2-yl)piperazin-1-yl]ethyl}-4H-pyrrolo[3,2,1-ij]quinoline] | 91% | 90% |
| Cc1ccnc(N2CCN(CCc3c(C)n4c5c(cc(N)cc35)CCC4)CC2)c1 [Example 20, 8-Amino-5,6-dihydro-2-methyl-1-{2-[4-(4-methylpyridin-2-yl)piperazin-1-yl]ethyl}-4H-pyrrolo[3,2,1-ij]quinoline] | 17% | 95% |
| COc1ccc(-c2c(CCN3CCN(c4cc(C)ccn4)CC3)c3cccc4c3n2CCC4)cc1 [Example 7, 2-(4-methoxy-phenyl)-1-{2-[4-(4-methylpyridin-2-yl)piperazin-1-yl]ethyl}-5,6-dihydro-4H-pyrrolo[3,2,1-ij]quinoline] | 100% | 35% |
| Cc1ccnc(N2CCN(CCc3c(CO)n4c5c(cccc35)CCC4)CC2)c1 [Example 16, 5,6-dihydro-2-hydroxymethyl-1-{2-[4-(4-methylpyridin-2-yl)piperazin-1-yl]ethyl}-4H-pyrrolo[3,2,1-ij]quinoline] | 73% | 73% |
| CC(=O)c1cc2c3c(c1)c(CCN1CCN(c4cc(C)ccn4)CC1)c(C)n3CCC2 [Example 67] | 76% | 95% |
| Cc1ccnc(N2CCN(CCc3c(C)n4c5c(cc(C)cc35)CCC4)CC2)c1 [Example 54] | 75% | 73% |
| C=CCCC1CCc2cccc3c(CCN4CCN(c5cc(C)ccn5)CC4)c(C)n1c23 (stereo not shown) [Example 62] | 70% | 95% |
| Cc1ccnc(N2CCN(CCc3c(C)n4c5c(cc([N+](=O)[O-])cc35)CCC4)CC2)c1 [Example 10, 2-Methyl-8-nitro-1-{2-[4-(4-methylpyridin-2-yl)-piperazin-1-yl]ethyl}-5,6-dihydro-4H-pyrrolo[3,2,1-ij]quinoline] | 94% | 75% |
| Cc1ccnc(N2CCN(CCc3c(C)n4c5c(cc(C(=O)c6ccccc6)cc35)CCC4)CC2)c1 [Example 66] | 100% | 70% |
| CC(=O)Oc1cc2c3c(c1)c(CCN1CCN(c4cc(C)ccn4)CC1)c(C)n3CCC2 [Example 24, 8-Acetoxy-5,6-dihydro-2-methyl-1-{2-[4-(4-methyl-pyridin-2-yl)piperazin-1-yl]ethyl}-4H-pyrrolo[3,2,1-ij]quinoline] | 80% | 60% |
| Cc1c(CCN2CCN(c3ccccn3)CC2)c2cccc3c2n1CCC3 [Example 37] | 28% | 58% |
| Cc1ccnc(N2CCN(CCc3cn4c5c(cccc35)CCC4)CC2)c1 [Example 13, 5,6-Dihydro-1-{2-[4-(4-methylpyridin-2-yl)piperazin-1-yl]ethyl}-4H-pyrrolo[3,2,1-ij]quinoline] | 93% | 68% |
| Cc1ccnc(N2CCN(CCc3c(C)n4c5c(cccc35)C(C)CC4)CC2)c1 (stereo not shown) [Example 57] | 86% | 95% |
